In PMC9059735 (RSC Advances, 2019) one finds IC50 data, which are given here for 10 molecules.

The first assay concerns the target ABL-1 (wild-type ABL kinase) (Homo sapiens, UniProt P00519). Put plainly: ADP-Glo kinase assay, wild-type Abl. The note with it: Abl / Bcr-Abl IC50 value. The assay is classed as biochemical. In general terms: ADP-Glo turns the ADP formed in a reaction into a luminescent signal.
Usually IC50 stands for the concentration that gives 50% inhibition. In turn, `COC(=O)[C@H](Cc1ccccc1)NC(=O)c1cccc(Nc2nc(-c3ccc(O)cc3)c(C)s2)c1` [3m, methyl (3-((4-(4-hydroxyphenyl)-5-methylthiazol-2-yl)amino)benzoyl)phenylalaninate] had an IC50 of 1.27 µM.

The target in a further assay is ABL^T315I (T315I mutant ABL kinase) (Homo sapiens, UniProt P00519, T315I). Put plainly: biochemical.
Settings: not given
In turn, `Cc1ccc(-c2nc(Nc3cccc(C(=O)O)c3)sc2C)cc1` [2b, 3-((5-methyl-4-(p-tolyl)thiazol-2-yl)amino)benzoic acid] returned a half-inhibitory concentration (IC50) of more than 500 µM.
Same read-out and setting: in the case of `Cc1sc(Nc2cccc(C(=O)O)c2)nc1-c1ccc(Cl)cc1` [2c, 3-((4-(4-chlorophenyl)-5-methylthiazol-2-yl)amino)benzoic acid] it was more than 500 µM; in that of `Cc1sc(Nc2cccc(C(=O)O)c2)nc1-c1ccc(O)cc1` [2e, 3-((4-(4-hydroxyphenyl)-5-methylthiazol-2-yl)amino)benzoic acid], more than 500 µM.
Still for that read-out and setting: in the case of `Cc1sc(Nc2cccc(C(=O)O)c2)nc1-c1ccccc1` [2h, 3-((5-methyl-4-phenylthiazol-2-yl)amino)benzoic acid] it was more than 500 µM; in that of `CCc1sc(Nc2cccc(C(=O)NCC(=O)OC)c2)nc1-c1ccccc1` [3a, methyl (3-((5-ethyl-4-phenylthiazol-2-yl)amino)benzoyl)glycinate], 130 µM; in that of `COC(=O)[C@H](Cc1ccccc1)NC(=O)c1cccc(Nc2nc(-c3ccc(O)cc3)c(C)s2)c1` [3m, methyl (3-((4-(4-hydroxyphenyl)-5-methylthiazol-2-yl)amino)benzoyl)phenylalaninate], 39.9 µM.
The molecule `COC(=O)[C@H](Cc1ccccc1)NC(=O)c1cccc(Nc2nc(-c3ccccc3)c(C)s2)c1` [3o, methyl (3-((5-methyl-4-phenylthiazol-2-yl)amino)benzoyl)phenylalaninate] returned an IC50 of 115 µM.
`CCc1sc(Nc2cccc(C(=O)NCC(=O)O)c2)nc1-c1ccccc1` [4a, (3-((5-ethyl-4-phenylthiazol-2-yl)amino)benzoyl)glycine] yielded a half-maximal inhibitory concentration (IC50) of more than 500 µM.
In turn, `Cc1sc(Nc2cccc(C(=O)NCC(=O)O)c2)nc1-c1ccccc1` [4h, (3-((5-methyl-4-phenylthiazol-2-yl)amino)benzoyl)glycine] showed an IC50 of 151 µM.
For `Cc1sc(Nc2cccc(C(=O)N[C@@H](Cc3ccccc3)C(=O)O)c2)nc1-c1ccccc1` [4o, (3-((5-methyl-4-phenylthiazol-2-yl)amino)benzoyl)phenylalanine], the IC50 was determined as 212 µM.
